The values that follow come from US20110301142A1, “ANTAGONISTS OF LYSOPHOSPHATIDIC ACID RECEPTORS” (priority 2008, published 2011).

The target in one test is T1, human LPA3 (Homo sapiens, UniProt Q9UBY5).
T1 construct: The full-length cDNA fragment for human LPA3 was obtained by PCR from the vector; expressed in transfected cells; cDNA from the Missouri S&T cDNA Resource Center
T1 sequence (Q9UBY5 1-353): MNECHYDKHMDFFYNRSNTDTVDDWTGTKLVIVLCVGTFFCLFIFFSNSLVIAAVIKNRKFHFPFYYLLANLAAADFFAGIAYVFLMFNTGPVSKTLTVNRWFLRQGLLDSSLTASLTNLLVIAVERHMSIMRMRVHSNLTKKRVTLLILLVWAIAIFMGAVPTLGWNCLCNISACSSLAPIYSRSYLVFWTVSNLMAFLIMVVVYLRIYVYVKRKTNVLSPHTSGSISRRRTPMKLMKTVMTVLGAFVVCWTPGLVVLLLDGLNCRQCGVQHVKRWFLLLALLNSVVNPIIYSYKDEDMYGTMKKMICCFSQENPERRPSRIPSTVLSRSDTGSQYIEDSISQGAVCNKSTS
As to the kind of experiment: LPA3 calcium flux assay. Type of test: cell-based. Conditions: Human LPA3 expressing CHO cells, stimulated with 10 nM LPA; read-out: HLPA3 Ca Flux IC50. How it is done: A vector containing the human LPA3 receptor cDNA was obtained from the Missouri S&T cDNA Resource Center (www.cdna.org). The full-length cDNA fragment for human LPA3 was obtained by PCR from the vector. The nucleotide sequence of the cloned human LPA3 was determined by sequencing and confirmed to be identical to the published human LPA3 sequence (NCBI accession number NM 012152). The cDNA was cloned into the pcDNA5/FRT expression plasmid and transfected in CHO cells using lipofectamine 2000 (Invitrogen Corp., USA). Clones stably expressing human LPA3 were selected using hygromycin and identified as cells that show Ca-influx in response to LPA.
Human LPA1 or LPA3 expressing CHO cells are seeded at 20,000-45,000 cells per well in a 96-well poly-D-lysine coated plate one or two days before the assay. Prior to the assay, the cells are washed once with PBS and then cultured in serum-free media overnight. On the day of the assay, a calcium indicator dye (Calcium 4, Molecular Devices) in assay buffer (HBSS with Ca^2+ and Mg^2+ and containing 20 mM Hepes and 0.3% fatty-acid free human serum albumin) is added to each well and incubation continued for 1 hour at 37° C. 10 μl of test compounds in 2.5% DMSO are added to the cells and incubation continued at room temperature for 30 minutes. Cells are the stimulated by the addition of 10 nM LPA and intracellular Ca^2+ measured using the Flexstation 3 (Molecular Devices). IC50s are determined using Graphpad prism analysis of drug titration curves.

The next test concerns the target T2, human LPA1 (Homo sapiens, UniProt Q92633).
T2 construct: the full-length cDNA for human LPA1 was obtained by PCR of the reverse transcription reaction; expressed in transfected cells
As to the kind of experiment: LPA1 calcium flux assay (HLPA1 Ca Flux). Particulars: Human LPA1 expressing CHO cells, stimulated with 10 nM LPA. Type of test: cell-based. The essentials:
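Compounds were fitted for IC50 from inhibition of the intracellular calcium rise evoked by 10 nM LPA. Test system: dye-loaded CHO cells stably transfected with human LPA1, serum-free overnight, with 30 min compound pretreatment at room temperature before stimulation.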
Background: Calcium flux is commonly read through the fluorescence of an indicator in the cells.

T2 sequence (Q92633 whole entry): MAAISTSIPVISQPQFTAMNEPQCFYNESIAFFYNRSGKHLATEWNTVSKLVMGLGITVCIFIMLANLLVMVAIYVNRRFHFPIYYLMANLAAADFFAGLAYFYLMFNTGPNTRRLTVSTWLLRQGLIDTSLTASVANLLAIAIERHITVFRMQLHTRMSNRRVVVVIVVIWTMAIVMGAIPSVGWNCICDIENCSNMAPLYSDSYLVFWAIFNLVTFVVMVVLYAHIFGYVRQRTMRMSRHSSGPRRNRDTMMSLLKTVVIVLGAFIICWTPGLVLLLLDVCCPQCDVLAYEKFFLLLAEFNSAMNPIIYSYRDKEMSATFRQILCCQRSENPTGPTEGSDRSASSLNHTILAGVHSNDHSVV

For `Cc1noc(-c2cccc(-c3cccc(CC(=O)O)c3)c2)c1NC(=O)OC(C)c1ccccc1Cl` (stereo not shown) [Compound 1-60, (3′-{4-[1-(2-Chloro-phenyl)-ethoxycarbonylamino]-3-methyl-isoxazol-5-yl}-biphenyl-3-yl)-acetic acid], the IC50 on human LPA3 and on human LPA1 was 1000 to 50000 nM in each case.

On to `Cc1noc(-c2ccc(Oc3ccc(CC(=O)O)cc3)cc2)c1NC(=O)O[C@H](C)c1ccccc1Cl` [Compound 1-138, [4-(4-{4-[(R)-1-(2-Chloro-phenyl)-ethoxycarbonylamino]-3-methyl-isoxazol-5-yl}-phenoxy)-phenyl]-acetic acid], for which the IC50 is 300 to 1000 nM at human LPA3 and less than 300 nM on human LPA1.

Turning to `Cc1noc(-c2ccc(Cc3cccc(CC(=O)O)c3)cc2)c1NC(=O)OC(C)c1ccccc1Cl` (stereo not shown) [Compound 1-21, [3-(4-{4-[1-(2-Chloro-phenyl)-ethoxycarbonylamino]-3-methyl-isoxazol-5-yl}-benzyl)-phenyl]acetic acid], the IC50 on human LPA3 is 1000 to 50000 nM; at human LPA1, less than 300 nM.

Regarding `Cc1noc(-c2ccc(-c3ccc(CC#N)cc3)cc2)c1NC(=O)O[C@H](C)c1ccccc1Cl` [Compound 2-2, [5-(4′-Cyanomethyl-biphenyl-4-yl)-3-methyl-isoxazol-4-yl]-carbamic acid (R)-1-(2-chloro-phenyl)-ethyl ester], the IC50 was 1000 to 50000 nM at human LPA3 and less than 300 nM at human LPA1.

For the compound `Cc1noc(-c2ccc(-c3cncc(CC(=O)O)c3)cc2)c1NC(=O)OC(C)c1ccccc1Cl` (stereo not shown) [Compound 1-63, [5-(4-{4-[1-(2-Chloro-phenyl)-ethoxycarbonylamino]-3-methyl-isoxazol-5-yl}-phenyl)-pyridin-3-yl]-acetic acid], the concentration for half-maximal inhibition (IC50) is 1000 to 50000 nM on human LPA3 and less than 300 nM at human LPA1.

Regarding `Cc1noc(-c2ccc(Cn3cnc(C(=O)O)n3)cc2)c1NC(=O)OC(C)c1ccccc1Cl` (stereo not shown) [Compound 1-1, 1-(4-{4-[1-(2-Chloro-phenyl)-ethoxycarbonylamino]-3-methyl-isoxazol-5-yl}-benzyl)-1H-[1,2,4]triazole-3-carboxylic acid], the IC50 on human LPA3 was 1000 to 50000 nM; on human LPA1, less than 300 nM.

Take `CCC(C(=O)O)c1ccc(-c2ccc(-c3onc(C)c3NC(=O)O[C@H](C)c3ccccc3)cn2)cc1` (stereo partly shown) [Compound 1-142]: the IC50 was 1000 to 50000 nM on human LPA3 and less than 300 nM on human LPA1.

Regarding `Cc1noc(-c2ccc(CS(=O)(=O)c3ccc(CC(=O)O)cc3)cc2)c1NC(=O)OC(C)c1ccccc1Cl` (stereo not shown) [Compound 1-97, [4-(4-{4-[1-(2-Chloro-phenyl)-ethoxycarbonylamino]-3-methyl-isoxazol-5-yl}-phenylmethanesulfonyl)-phenyl]-acetic acid], the figures for the IC50 on human LPA3 and at human LPA1 were 1000 to 50000 nM and less than 300 nM, respectively.

Turning to `Cc1noc(-c2ccc(Cc3cccc(C(=O)O)c3)cc2)c1NC(=O)OC(C)c1ccccc1Cl` (stereo not shown) [Compound 1-5, 3-(4-{4-[1-(2-Chloro-phenyl)-ethoxycarbonylamino]-3-methyl-isoxazol-5-yl}-benzyl)-benzoic acid], the half-maximal inhibitory concentration (IC50) was 1000 to 50000 nM at human LPA3 and less than 300 nM at human LPA1.

On to `Cc1noc(-c2ccc(-c3ccc(C(C)(C)C(=O)O)cc3)cc2)c1NC(=O)O[C@H](C)c1ccccc1F` [Compound 1-90, 2-(4′-{4-[(R)-1-(2-Fluoro-phenyl)-ethoxycarbonylamino]-3-methyl-isoxazol-5-yl}-biphenyl-4-yl)-2-methyl-propionic acid], for which the half-inhibitory concentration (IC50) at human LPA3 was 1000 to 50000 nM; on human LPA1 it was less than 300 nM.

As to `Cc1noc(-c2ccc(-c3ccc(CC(=O)O)cc3)cc2)c1NC(=O)OC(C)c1ccccc1Cl` (stereo not shown) [Compound 1-58, (4′-{4-[1-(2-Chloro-phenyl)-ethoxycarbonylamino]-3-methyl-isoxazol-5-yl}-biphenyl-4-yl)-acetic acid], the 50% inhibitory concentration (IC50) on human LPA3 is 1000 to 50000 nM; at human LPA1, less than 300 nM.

With `Cc1noc(-c2ccc(Cc3ccc(CC(=O)O)cc3)cc2)c1NC(=O)O[C@H](C)c1ccccc1F` [Compound 1-81, [4-(4-{4-[(R)-1-(2-Fluoro-phenyl)-ethoxycarbonylamino]-3-methyl-isoxazol-5-yl}-benzyl)-phenyl]-acetic acid], the IC50 at human LPA3 was 1000 to 50000 nM; at human LPA1 it was less than 300 nM.

For `Cc1noc(-c2ccc(-c3ccc(C(=O)O)cc3)cc2)c1NC(=O)O[C@H](C)c1ccccc1` [Compound 1-122], the IC50 on human LPA3 is 1000 to 50000 nM; at human LPA1 it was less than 300 nM.

Regarding `Cc1noc(-c2ccc(CSc3ccc(CC(=O)O)cc3)cc2)c1NC(=O)OC(C)c1ccccc1Cl` (stereo not shown) [Compound 1-17, [4-(4-{4-[1-(2-Chloro-phenyl)-ethoxycarbonylamino]-3-methyl-isoxazol-5-yl}-benzylsulfanyl)-phenyl]-acetic acid], the half-maximal inhibitory concentration (IC50) on human LPA3 is 1000 to 50000 nM; on human LPA1, less than 300 nM.

Regarding `COC(=O)Cc1ccc(-c2ccc(-c3onc(C)c3NC(=O)OC(C)c3ccccc3Cl)cc2)cc1` (stereo not shown) [Compound 1-69, (4′-{4-[1-(2-Chloro-phenyl)-ethoxycarbonylamino]-3-methyl-isoxazol-5-yl}-biphenyl-4-yl)-acetic acid methyl ester], the IC50 at human LPA3 is 1000 to 50000 nM; on human LPA1, less than 300 nM.

As for `Cc1noc(-c2ccc(CS(=O)(=O)c3cccc(CC(=O)O)c3)cc2)c1NC(=O)OC(C)c1ccccc1Cl` (stereo not shown) [Compound 1-98, [3-(4-{4-[1-(2-Chloro-phenyl)-ethoxycarbonylamino]-3-methyl-isoxazol-5-yl}-phenylmethanesulfonyl)-phenyl]acetic acid], the IC50 on human LPA3 was more than 50000 nM; on human LPA1, less than 300 nM.

For `Cc1noc(-c2ccc(CSc3ccccc3CC(=O)O)cc2)c1NC(=O)OC(C)c1ccccc1Cl` (stereo not shown) [Compound 1-19, [2-(4-{4-[1-(2-Chloro-phenyl)-ethoxycarbonylamino]-3-methyl-isoxazol-5-yl}-benzylsulfanyl)-phenyl]acetic acid], the IC50 is 1000 to 50000 nM at human LPA3 and less than 300 nM at human LPA1.

Take `Cc1noc(-c2cnc(-c3ccc(CC(=O)O)cc3)s2)c1NC(=O)O[C@H](C)c1ccccc1F` [Compound 3-4, [4-(5-{4-[(R)-1-(2-Fluoro-phenyl)-ethoxycarbonylamino]-3-methyl-isoxazol-5-yl}-thiazol-2-yl)-phenyl]-acetic acid]: the concentration for half-maximal inhibition (IC50) is more than 50000 nM at human LPA3 and less than 300 nM on human LPA1.

Take `Cc1noc(-c2ccc(COc3ccccc3CC(=O)O)cc2)c1NC(=O)O[C@H](C)c1ccccc1Cl` [Compound 1-114, [2-(4-{4-[(R)-1-(2-Chloro-phenyl)-ethoxycarbonylamino]-3-methyl-isoxazol-5-yl}-benzyloxy)-phenyl]-acetic acid]: the figures for the IC50 on human LPA3 and at human LPA1 were 1000 to 50000 nM and less than 300 nM, respectively.

With `Cc1noc(-c2ccc(-c3ccc(C(=O)O)cn3)cc2)c1NC(=O)OC(C)c1ccccc1Cl` (stereo not shown) [Compound 1-54, 6-(4-{4-[1-(2-Chloro-phenyl)-ethoxycarbonylamino]-3-methyl-isoxazol-5-yl}-phenyl)-nicotinic acid], the concentration for half-maximal inhibition (IC50) on human LPA3 was 1000 to 50000 nM; on human LPA1, less than 300 nM.

For `Cc1noc(-c2ccc(COc3ccc(CC(=O)O)cc3)cc2)c1NC(=O)O[C@H](C)c1ccccc1Cl` [Compound 1-103, [4-(4-{4-[(R)-1-(2-Chloro-phenyl)-ethoxycarbonylamino]-3-methyl-isoxazol-5-yl}-benzyloxy)-phenyl]-acetic acid], the figures for the half-maximal inhibitory concentration (IC50) on human LPA3 and on human LPA1 were 1000 to 50000 nM and less than 300 nM, respectively.

With `Cc1noc(-c2ccc(Cc3ccc(C(=O)O)s3)cc2)c1NC(=O)OC(C)c1ccccc1Cl` (stereo not shown) [Compound 1-15, 5-(4-{4-[1-(2-Chloro-phenyl)-ethoxycarbonylamino]-3-methyl-isoxazol-5-yl}-benzyl)-thiophene-2-carboxylic acid], the concentration for half-maximal inhibition (IC50) on human LPA3 is 1000 to 50000 nM; at human LPA1, less than 300 nM.

For `Cc1noc(-c2ccc(-c3ccc(C(C)(C)C(=O)O)cc3)cc2)c1NC(=O)OC(C)c1ccccc1F` (stereo not shown) [Compound 1-86, 2-(4′-{4-[1-(2-Fluoro-phenyl)-ethoxycarbonylamino]-3-methyl-isoxazol-5-yl}-biphenyl-4-yl)-2-methyl-propionic acid], the results for the half-inhibitory concentration (IC50) at human LPA3 and at human LPA1 were 1000 to 50000 nM and less than 300 nM, respectively.

As usually defined, the IC50 is the point on the concentration scale where inhibition reaches its midpoint.
